Measurements taken from patent publication US10011597B2 (APOGLYX AB, priority 2014, dated 2018).
pIC50: −log10 of the molar value.

Molecular target: T1, human aquaporin 9 (Homo sapiens, UniProt O43315)
T1 construct: expressed in transfected cells; host or cells: Human AQP9 cell line with tetracycline added to the medium
T1 sequence (O43315 1-295): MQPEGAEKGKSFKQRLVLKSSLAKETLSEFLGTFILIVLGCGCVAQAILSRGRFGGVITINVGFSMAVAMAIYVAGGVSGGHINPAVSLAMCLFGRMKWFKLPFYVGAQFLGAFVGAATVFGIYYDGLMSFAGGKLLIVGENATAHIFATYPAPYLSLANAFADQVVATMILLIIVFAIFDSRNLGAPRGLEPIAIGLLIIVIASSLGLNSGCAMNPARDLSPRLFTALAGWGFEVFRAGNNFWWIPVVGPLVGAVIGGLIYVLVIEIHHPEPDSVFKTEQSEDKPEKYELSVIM
Experiment: Calcein quenching fluostar assay
Type: cell-based
Settings: inhibition of human aquaporin 9; Human AQP9 cell line, tetracyclin-induced; 25° C.
Method: Calcein Quenching Fluostar Assay
A calcein quenching fluostar assay was performed in order to investigate the biological activity of the newly synthesized examples 1 to 57. This type of assay is disclosed in J. Biol. Chem., 2011, 286, 44319-44325 and Am. J. Physiol. Renal Physiol. (2010), 298, F224-230.
1) Two days prior to commencement of the assay, seed 10,000 cells/well of 96 well black clear bottom plate (Greiner Poly-lysin plate). A 1:1 mix of Dulbecco's Modified Eagle's Medium:Nutrient Mixture F-12 (DMEM: F12) was obtained from Gibco. Tetracycline stock of 5 mg/ml in 96% ethanol is used. Medium:DMEM/F12/10% Donor Bovine Serum, Human AQP9 cell line+1:270,000 tetracyclin, mouse AQP9 cell line+1:2,700,000 tetracycline.
2) Day of assay: Flick/slam off the medium and add 50 μl/well of loading solution: 5 ml DMEM/F12/10% Donor Bovine Serum, 25 μl Calcein AM—from freshly dissolved aliquot in 50 μl DMSO (VWR #734-1434), and 100 μl Probenecid.
3) Incubate the well for 90 minutes at 37° C.
4) Perform one wash with 75 μl wash buffer.
5) Add 75 μl of an example compound prepared in wash buffer per well.
Example compounds are prepared in 500 μl U bottom PP plates (NUNC). […] Substance in DMSO are added to row A; 180 μl of wash buffer+1% DMSO are added to rows B-H. 90 μl from row A are transferred and mixed with all other wells (up to row G) to make a 3-fold dilution series.
6) Assay in FLUOstar Optima at 25° C. Settings buffer addition at 135 μl seconds, add 75 μl/well, record time course for 30 seconds, add sucrose buffer 3.6 seconds into recording.
7) Normalization to initial in Excel.
8) Fit to “exponential decay” function in GraphPad Prism 5.0, then arrange half live shrinking values according to wells and fit dose-response curves.

| Structure (SMILES) | pIC50 |
| --- | --- |
| CCn1c(SCC(=O)Nc2nnc(-c3ccc(OC)cc3)s2)nnc1-c1ccc(C)cc1 [Example 15, 2-{[4-Ethyl-5-(4-methylphenyl)-4H-1,2,4-triazol-3-yl]sulfanyl}-N-[5-(4-methoxyphenyl)-1,3,4-thiadiazol-2-yl]acetamide] | 6.58 |
| Cn1c(SCC(=O)Nc2nnc(-c3cccc(F)c3)s2)nnc1-c1ccc(F)cc1 [Example 3, N-[5-(3-fluorophenyl)-1,3,4-thiadizole-2-yl]-2-{[5-(4-fluorophenyl)-4-methyl-4H-1,2,4-triazole-3-yl]sulfanyl}acetamide] | 5.89 |
| CCn1c(SCC(=O)Nc2nnc(-c3ccc(F)cc3)s2)nnc1-c1cccc(F)c1 [Example 28] | 6.70 |
| Cn1c(SCC(=O)Nc2nnc(-c3ccc(F)cc3)s2)nnc1-c1ccc(F)cc1 [Example 1, N-[5-(4-fluorophenyl)-1,3,4-thiadizole-2-yl]-2-{[5-(4-fluorophenyl)-4-methyl-4H-1,2,4-triazole-3-yl]sulfanyl}acetamide] | 6.41 |
| CCn1c(SCC(=O)Nc2nnc(-c3ccc(OC)cc3)s2)nnc1-c1ccc(OC)cc1 [Example 16, 2-{[4-Ethyl-5-(4-methoxyphenyl)-4H-1,2,4-triazol-3-yl]sulfanyl}-N-[5-(4-methoxyphenyl)-1,3,4-thiadiazol-2-yl]acetamide] | 6.57 |
| CCn1c(SCC(=O)Nc2nnc(-c3ccc(SC)cc3)s2)nnc1-c1ccc(F)cc1 [Example 55, 2-{[4-ethyl-5-(4-fluorophenyl)-4H-1,2,4-triazol-3-yl]sulfanyl}-N-{5-[4-(methylsulfanyl)phenyl]-1,3,4-thiadiazol-2-yl}acetamid] | 6.17 |
| COc1ccc(-c2nnc(NC(=O)CSc3nnc(-c4ccccc4)n3CCO)s2)cc1 [Example 52, 2-{[4-(3-hydroxyethyl)-5-phenyl-4H-1,2,4-triazol-3-yl]sulfanyl}-N-[5-(4-methoxyphenyl)-1,3,4-thiadiazol-2-yl]acetamide] | 7.23 |
| CCn1c(SCC(=O)Nc2nnc(-c3ccc(OC)cc3)s2)nnc1-c1ccc(F)cc1 [Example 11, 2-{[4-Ethyl-5-(4-fluorophenyl)-4H-1,2,4-triazol-3-yl]sulfanyl}-N-[5-(4-methoxyphenyl)-1,3,4-thiadiazol-2-yl]acetamide] | 7.40 |
| CCn1c(SCC(=O)Nc2nnc(-c3ccc(F)cc3)s2)nnc1-c1ccncc1 [Example 31, 2-{[4-Ethyl-5-(pyridin-4-yl)-4H-1,2,4-triazol-3-yl]sulfanyl}-N-[5-(4-fluorophenyl)-1,3,4-thiadiazol-2-yl]acetamide] | 7.00 |
| CCn1c(SCC(=O)Nc2nnc(-c3ccc(OC)cc3)s2)nnc1-c1ccncc1 [Example 21, 2-{[4-Ethyl-5-(pyridin-4-yl)-4H-1,2,4-triazol-3-yl]sulfanyl}-N-[5-(4-methoxyphenyl)-1,3,4-thiadiazol-2-yl]acetamide] | 7.17 |
| CCn1c(SCC(=O)Nc2nnc(-c3ccc(F)cc3)s2)nnc1-c1ccc(Cl)cc1 [Example 43, 2-{[5-(4-chlorophenyl)-4-ethyl-4H-1,2,4-triazol-3-yl]sulfanyl}-N-[5-(4-fluorophenyl)-1,3,4-thiadiazol-2-yl]acetamide] | 7.04 |
| COc1ccc(-c2nnc(NC(=O)CSc3nnc(-c4ccccc4)n3CCN)s2)cc1 [Example 49, 2-{[4-(2-aminoethyl)-5-phenyl-4H-1,2,4-triazol-3-yl]sulfanyl}-N-[5-(4-methoxyphenyl) 1,3,4 thiadiazol-2-yl]acetamide] | 6.43 |
| CCn1c(SCC(=O)Nc2nnc(-c3ccc(OCCOC)cc3)s2)nnc1-c1ccc(F)cc1 [Example 37, 2-{[4-ethyl-5-(4-fluorophenyl)-4H-1,2,4-triazol-3-yl]sulfanyl}-N-{5-[4-(2-methoxyethoxy)phenyl]-1,3,4-thiadiazol-2-yl}acetamide] | 7.09 |
| CCn1c(SCC(=O)Nc2nnc(-c3ccc(F)cc3)s2)nnc1-c1cccnc1 [Example 30, 2-{[4-Ethyl-5-(pyridin-3-yl)-4H-1,2,4-triazol-3-yl]sulfanyl}-N-[5-(4-fluorophenyl)-1,3,4-thiadiazol-2-yl]acetamide] | 6.96 |
| COc1ccc(-c2nnc(NC(=O)CSc3nnc(-c4ccccc4)n3CC(N)=O)s2)cc1 [Example 50, 2-{[4-(carbamoylmethyl)-5-phenyl-4H-1,2,4-triazol-3-yl]sulfanyl}-N-[5-(4methoxyphenyl)-1,3,4-thiadiazol-2-yl]acetamide] | 6.70 |
| CCn1c(SCC(=O)Nc2nnc(-c3ccc(OC)cc3)s2)nnc1-c1ccc(Cl)cc1 [Example 40, 2-{[5-(4-chlorophenyl)-4-ethyl-4H-1,2,4-triazol-3-yl]sulfanyl}-N-[5-(4-methoxyphenyl)-1,3,4-thiadiazol-2-yl]acetamide] | 6.09 |
| Cn1c(SCC(=O)Nc2nnc(-c3ccccc3F)s2)nnc1-c1ccncc1 [Example 2, N-[5-(2-fluorophenyl)-1,3,4-thiadiazol-2-yl]-2-{[4-methyl-5-(pyridin-4-yl)-4H-1,2,4-triazol-3-yl]sulfanyl}acetamide] | 6.71 |
| CCn1c(SCC(=O)Nc2nnc(-c3ccccc3F)s2)nnc1-c1ccc(F)cc1 [Example 38, 2-{[4-ethyl-5-(4-fluorophenyl)-4H-1,2,4-triazol-3-yl]sulfanyl}-N-[5-(2-fluorophenyl)-1,3,4-thiadiazol-2-yl]acetamide] | 6.72 |
| CCn1c(SCC(=O)Nc2nnc(-c3ccc(OC)cc3)s2)nnc1-c1cccc(Cl)c1 [Example 39, 2-{[5-(3-chlorophenyl)-4-ethyl-4H-1,2,4-triazol-3-yl]sulfanyl}-N-[5-(4-methoxyphenyl)-1,3,4-thiadiazol-2-yl]acetamide] | 6.95 |
| CCn1c(SCC(=O)Nc2nnc(-c3ccc(O)cc3)s2)nnc1-c1ccc(F)cc1 [Example 34, 2-{[4-Ethyl-5-(4-fluorophenyl)-4H-1,2,4-triazol-3-yl]sulfanyl}-N-[5(4-hydroxyphenyl)-1,3,4-thiadiazol-2-yl]acetamide] | 7.21 |
| CCn1c(SCC(=O)Nc2nnc(-c3ccc(S(C)(=O)=O)cc3)s2)nnc1-c1ccncc1 [Example 56, 2-{[4-ethyl-5-(pyridin-4-yl)-4H-1,2,4-triazol-3-yl]sulfanyl}-N-[5-(4-methanesulfonylphenyl)-1,3,4-thiadiazol-2-yl]acetamid] | 6.82 |
| COc1ccc(-c2nnc(NC(=O)CSc3nnc(-c4ccc(F)cc4)n3C3CC3)s2)cc1 [Example 33, 2-{[4-Cyclopropyl-5-(4-fluorophenyl)-4H-1,2,4-triazol-3-yl]sulfanyl}-N-[5-(4-methoxyphenyl)-1,3,4-thiadiazol-2-yl]acetamide] | 6.01 |
| COc1ccc(-c2nnc(NC(=O)CSc3nnc(-c4ccccc4)n3CCCO)s2)cc1 [Example 51, 2-{[4-(3-hydroxypropyl)-5-phenyl-4H-1,2,4-triazol-3-yl]sulfanyl}-N-[5-(4-methoxyphenyl)-1,3,4-thiadiazol-2-yl]acetamide] | 7.07 |
| CCn1c(SCC(=O)Nc2nnc(-c3ccc(OC)cc3)s2)nnc1-c1cccc(C)c1 [Example 14, 2-{[4-Ethyl-5-(3-methylphenyl)-4H-1,2,4-triazol-3-yl]sulfanyl}-N-[5-(4-methoxyphenyl)-1,3,4-thiadiazol-2-yl]acetamide] | 6.76 |
| CCn1c(SCC(=O)Nc2nnc(-c3ccc(OC)cc3)s2)nnc1-c1cccc(F)c1 [Example 18, 2-{[4-Ethyl-5-(3-fluorophenyl)-1,2,4-triazol-3-yl]sulfanyl}-N-[5-(4-methoxyphenyl)-1,3,4-thiadiazol-2-yl]acetamide] | 6.87 |
